According to patent publication US20230039395A1, “LSD AND […] EQUIVALENCE DETERMINATION” (Universitätsspital Basel, priority 2021, published 2023):

Legend:
[1] = molecular target: 5-HT transporter (SERT) (Homo sapiens, UniProt P31645); settings: cited from earlier work
[2] = Subjective drug effects on visual analog scales (VAS) in healthy subjects
[3] = system: D1-3 receptors; settings: cited from earlier work
[4] = four unused old LSD capsules, years after study completion; cited from earlier work
[5] = molecular target: serotonin (5-HT)2A receptors (Homo sapiens, UniProt P28223); settings: cited from earlier work
serotonin (5-HT)2A receptors, sequence (P28223 whole entry): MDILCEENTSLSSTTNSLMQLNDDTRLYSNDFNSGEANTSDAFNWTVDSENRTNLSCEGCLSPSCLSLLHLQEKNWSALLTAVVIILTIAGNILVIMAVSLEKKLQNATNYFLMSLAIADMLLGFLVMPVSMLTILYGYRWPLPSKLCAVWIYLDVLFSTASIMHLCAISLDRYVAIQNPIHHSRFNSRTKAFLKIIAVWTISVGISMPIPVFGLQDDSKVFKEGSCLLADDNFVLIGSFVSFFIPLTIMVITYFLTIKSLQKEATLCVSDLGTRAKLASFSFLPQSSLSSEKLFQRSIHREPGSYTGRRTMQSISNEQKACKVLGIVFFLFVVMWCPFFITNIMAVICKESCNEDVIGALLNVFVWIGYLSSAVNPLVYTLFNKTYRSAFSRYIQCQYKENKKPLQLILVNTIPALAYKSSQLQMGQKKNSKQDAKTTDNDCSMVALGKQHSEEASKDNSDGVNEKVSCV

[6] = Spontaneously reported adverse events after treatment; type: in vivo, human; settings: for type and amount of adverse events, psilocybin versus LSD: in vivo; for flash back episodes: within 72 hours after administration, nine episodes in five subjects
Description: (§1) The subjects then underwent baseline measurements.
In addition to the adverse effects systematically assessed with the list of complaints, there were spontaneously reported adverse events after LSD or psilocybin administration as assessed in the evening of the treatment day or within 48 hours after treatment. These adverse after effects after psilocybin or LSD administration included headaches (four subjects after psilocybin and three after LSD), migraine attack (one subject after LSD), nosebleeds (one subject after psilocybin), low mood (two subjects after psilocybin and two subjects after LSD), nausea (two subjects after psilocybin and one subject after LSD), nightmares (one subject after psilocybin), restlessness (one subject after psilocybin and one subject after LSD), vivid dreams (one subject after LSD), insomnia (one subject after psilocybin), involuntary movement in lower extremities (one subject after LSD). Nine flash back episodes occurred in five subjects (one to 20 times within 72 hours after substance administration), five episodes occurred after LSD administration, four episodes occurred after psilocybin administration.

[7] = Acute adverse effects, 66-item List of Complaints; settings: for headache, number of subjects reporting: 0-12 hours, high dose; for headache, number of subjects reporting / balance disturbed, number of subjects / dry mouth, number of subjects reporting: 28 subjects
[8] = Plasma exposure of LSD and iso-LSD after LSD capsules in previous studies; settings: similar bioavailability assumed
[9] = after the 200 μg dose as two 100 μg LSD capsules (Steuer et al., 2017); cited from earlier work
[10] = Mystical Experience Questionnaire (MEQ43 and MEQ30) in healthy subjects; settings: LSD 200 μg; MEQ43 p=0.002, MEQ30 p=0.015
[11] = Endocrine effects: plasma cortisol and prolactin (PRL); type: in vivo, human; settings: 2.5 hours after administration
Description: as §1
Endocrine effects: Plasma concentrations of cortisol, prolactin (PRL), oxytocin, and brain-derived neurotrophic factor (BDNF) were determined as described elsewhere (Holze et al., 2021; Schmid et al., 2015). Cortisol and PRL were measured before and 2.5 hours after drug administration. BDNF was measured before and three times after drug administration.
The criterion for significance was p<0.05.

[12] = Adjective Mood Rating Scale (AMRS) in healthy subjects
[13] = Autonomic effects (blood pressure, heart rate, body temperature, pupil) in healthy subjects; settings: for rate pressure product: high dose of both substances
[14] = Dose equivalence of LSD and psilocybin extrapolated from acute effects; type: in vivo, human; settings: LSD 200 μg
[15] = 5 Dimensions of Altered States of Consciousness Scale (5D-ASC) in healthy subjects
[16] = 75 μg LSD base in saline i.v., previous studies; cited from earlier work
[17] = evening of treatment day or within 48 hours

5-HT transporter (SERT), sequence (P31645 whole entry, species assumed): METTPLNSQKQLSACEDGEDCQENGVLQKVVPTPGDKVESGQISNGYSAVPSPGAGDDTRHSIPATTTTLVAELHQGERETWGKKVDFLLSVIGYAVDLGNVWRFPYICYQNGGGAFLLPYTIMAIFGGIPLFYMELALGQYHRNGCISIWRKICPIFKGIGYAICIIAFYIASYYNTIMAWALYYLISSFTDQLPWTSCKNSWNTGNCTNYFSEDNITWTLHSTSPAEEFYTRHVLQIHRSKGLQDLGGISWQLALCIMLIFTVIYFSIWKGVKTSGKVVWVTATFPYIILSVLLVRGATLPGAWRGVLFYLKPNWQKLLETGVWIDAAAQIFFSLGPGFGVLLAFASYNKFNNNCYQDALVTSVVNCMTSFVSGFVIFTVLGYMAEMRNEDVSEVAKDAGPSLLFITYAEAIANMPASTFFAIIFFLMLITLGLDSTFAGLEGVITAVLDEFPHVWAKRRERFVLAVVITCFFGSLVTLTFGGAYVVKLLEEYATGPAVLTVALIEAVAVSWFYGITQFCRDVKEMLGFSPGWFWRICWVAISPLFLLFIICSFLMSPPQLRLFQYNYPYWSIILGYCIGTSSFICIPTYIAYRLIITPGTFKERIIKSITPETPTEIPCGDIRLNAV

CN(C)CCc1c[nH]c2cccc(O)c12 [Psilocin, psilocin]
action on the 5-HT transporter (SERT) [1]: inhibits

CCN(CC)C(=O)[C@@H]1C=C2c3cccc4[nH]cc(c34)C[C@H]2N(C)C1 [LSD, lysergic acid diethylamide]
dose-response curve of subjective effects ([2]; 15-30 mg psilocybin range compared to 100-200 μg LSD range): plateau effect | overall effects and positive drug effects, 200 μg versus 100 μg LSD ([2]; LSD 100 and 200 μg oral): comparable positive drug effects | bad drug effects, 200 μg versus 100 μg LSD ([2]; human, in vivo): more | ego dissolution (VAS), 200 μg versus 100 μg LSD ([2]; p=0.014): more and greater | anxiety (VAS), 200 μg versus 100 μg LSD ([2]; p=0.054): more and near-significantly greater | action on D1-3 receptors [3]: stimulates | remaining amount of LSD in capsules [4]: 22 ± 7 µg | binding to 5-HT2A receptors [5]: bind | headaches, spontaneously reported [6, 17]: three | involuntary movement in lower extremities, spontaneously reported [6, 17]: one | low mood, spontaneously reported [6, 17]: two | migraine attack, spontaneously reported [6, 17]: one | nausea, spontaneously reported [6, 17]: one | restlessness, spontaneously reported [6, 17]: one | vivid dreams, spontaneously reported [6, 17]: one | type and amount of adverse events, psilocybin versus LSD [6]: comparable | flash back episodes [6]: five | headache, number of subjects reporting [7]: 13 subjects | balance disturbed, number of subjects [7]: 16 subjects | dry mouth, number of subjects reporting [7]: 15 subjects | frequency of acute adverse effects, LSD versus psilocybin ([7]; in vivo): equally frequent | most frequent acute adverse effects ([7]; in vivo): fatigue, headache, lack of concentration, lack of energy, dullness, feeling week, loss of appetite, dry mouth, and impaired balance | total number of acute complaints, 100 versus 200 μg LSD ([7]; in vivo): did not differ | AUC∞ as percent of the value expected from confirmed 96 μg LSD doses ([8]; 100 μg dose): 61% | AUC∞ as percent of the value expected from confirmed 96 μg LSD doses ([8]; 200 μg dose): 76% | plasma AUC24 [9]: 21 ng·h/mL | MEQ ineffability ratings versus 30 mg psilocybin [10]: significantly greater | PRL plasma concentrations [11]: significantly increased | cortisol plasma concentrations [11]: significantly increased | AMRS emotional excitation versus 15 mg or 30 mg psilocybin ([12]; LSD 100 and 200 μg): greater | AMRS extraversion ratings versus placebo ([12]; all doses): decrease | AMRS inactivation ratings versus placebo ([12]; all doses): significantly and similarly increased | AMRS introversion ratings versus placebo ([12]; all doses): increased | AMRS self-rated anxiety ([12]; both doses of LSD (100 and 200 μg)): slightly but significantly increased | increase in heart rate versus psilocybin 30 mg ([13]; LSD 200 μg, p=0.002): significantly more | rate pressure product [13]: similarly increased | overall strength versus the 30 mg psilocybin dose [14]: overall stronger | alterations of the mind in the 5D-ASC scale ([15]; human, in vivo): marked alterations of the mind | 5D-ASC AED (anxious ego dissolution), 200 μg versus 100 μg LSD ([15]; p=0.02): greater | 5D-ASC anxiety, 200 μg versus 100 μg LSD ([15]; p=0.03): greater | 5D-ASC impairments of control and cognition, 200 μg versus 100 μg LSD ([15]; p=0.04): greater | clinical response to 75 μg intravenous LSD versus oral 100 μg dose [16]: not significantly different

CN(C)CCc1c[nH]c2cccc(OP(=O)(O)O)c12 [psilocybin]
headaches, spontaneously reported [6, 17]: four | insomnia, spontaneously reported [6, 17]: one | low mood, spontaneously reported [6, 17]: two | nausea, spontaneously reported [6, 17]: two | nightmares, spontaneously reported [6, 17]: one | nosebleeds, spontaneously reported [6, 17]: one | restlessness, spontaneously reported [6, 17]: one | type and amount of adverse events, psilocybin versus LSD [6]: comparable | flash back episodes [6]: four | headache, number of subjects reporting [7]: 18 subjects | balance disturbed, number of subjects [7]: 16 subjects | dry mouth, number of subjects reporting [7]: 9 subjects | frequency of acute adverse effects, LSD versus psilocybin ([7]; in vivo): equally frequent | most frequent acute adverse effects ([7]; in vivo): fatigue, headache, lack of concentration, lack of energy, dullness, feeling week, loss of appetite, dry mouth, and impaired balance | acute adverse effects versus LSD 100 μg ([7]; psilocybin 15 mg, p<0.01): fewer | acute adverse effects versus psilocybin 30 mg ([7]; psilocybin 15 mg, p<0.1): trend toward fewer | rate pressure product [13]: similarly increased | increase in diastolic blood pressure versus LSD 200 μg ([13]; psilocybin 30 mg, p<0.001): more | increase in systolic blood pressure versus LSD 200 μg ([13]; psilocybin 30 mg, p=0.04): more

CCN(CC)C(=O)[C@H]1C=C2c3cccc4[nH]cc(c34)C[C@H]2N(C)C1 [iso-LSD]
plasma AUC24 [9]: 9.2 ng·h/mL
